Results taken from US20260315487A1, “IKK-ALPHA INHIBITORS” (Cancer Research Technology Limited, priority 2023, published 2026).
Where two headings read alike, the source gives them in different places.

Key:
[1] = biological target: T1, IKKα (Homo sapiens, UniProt O15111); details: previous work [6]; read-out: IKKα inhibitory activity (Ki) of previous hit; cited from earlier work
T1 sequence (O15111 1-745): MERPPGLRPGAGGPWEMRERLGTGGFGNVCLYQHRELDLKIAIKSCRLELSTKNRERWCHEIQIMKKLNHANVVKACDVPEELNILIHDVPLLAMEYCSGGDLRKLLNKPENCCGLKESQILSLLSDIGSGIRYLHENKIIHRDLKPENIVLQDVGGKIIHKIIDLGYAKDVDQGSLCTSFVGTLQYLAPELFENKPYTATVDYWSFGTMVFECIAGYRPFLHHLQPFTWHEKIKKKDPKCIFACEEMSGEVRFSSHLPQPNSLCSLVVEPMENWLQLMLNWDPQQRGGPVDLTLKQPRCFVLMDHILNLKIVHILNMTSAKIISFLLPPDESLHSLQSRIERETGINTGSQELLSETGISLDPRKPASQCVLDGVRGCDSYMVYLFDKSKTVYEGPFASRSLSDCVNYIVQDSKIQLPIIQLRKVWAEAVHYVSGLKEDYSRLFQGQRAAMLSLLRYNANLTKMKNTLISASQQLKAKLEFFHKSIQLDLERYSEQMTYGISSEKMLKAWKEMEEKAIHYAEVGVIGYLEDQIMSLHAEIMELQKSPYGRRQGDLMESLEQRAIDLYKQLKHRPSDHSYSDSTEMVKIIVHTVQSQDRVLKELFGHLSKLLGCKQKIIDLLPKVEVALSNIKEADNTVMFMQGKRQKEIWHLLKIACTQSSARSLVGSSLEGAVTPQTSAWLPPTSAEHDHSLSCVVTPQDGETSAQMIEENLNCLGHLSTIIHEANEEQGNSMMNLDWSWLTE

[2] = system: IKKα over IKKβ; details: previous work [6]; cited from earlier work
[3] = system: U2OS cells; details: cited from earlier work
[4] = biological target: T1, IKKα; assay: in-house DELFIA kinase assay, IKKα; assay type: biochemical
Description: (§1) To examine the pyrrolo[2,3 -b]pyridines as an alternative scaffold, we adopted the AIPP core because it had similar dimensions to 1 SU909, with HBD/HBA motifs positioned at the scaffold extremities to interact with both the hinge region and the G-loop wall of IKKα, a rationale we had previously proposed as the basis for imparting selectivity. A preliminary set of AIPP derivatives was designed to explore its utility as an IKK-targeting scaffold, whilst incorporating additional functionality through which to introduce selectivity for the IKKα isoform (2-4 SU1087, SU1266 and SU1253; FIG. 3). This was achieved by initially adopting two different approaches: either appending a hydrophobic moiety to the pyrrolo[2,3 -b]pyridine motif as a fused form to afford the tricyclic derivatives 2 and 3 SU1266 and SU1087, or as a phenyl substituent to introduce flexibility with the central pyrrolo[2,3 -b]pyridine moiety in 4 SU1253 . […] The pyrrolo[2,3 -b]pyridine was bound to the hinge region in the classical HBA/HBD motif with the GK+3 NH and C═O backbone, whilst the aminoindazole projected towards the top of the pocket to interact with the G-loop (FIG. 4A). […] In both isoforms, the 2 -phenyl moiety was oriented out from the hinge towards the exposed solvent area.

[5] = biological target: T2, IKKβ (Homo sapiens, UniProt O14920); assay: in-house DELFIA kinase assay, IKKβ; assay type: biochemical
T2 sequence (O14920 1-756): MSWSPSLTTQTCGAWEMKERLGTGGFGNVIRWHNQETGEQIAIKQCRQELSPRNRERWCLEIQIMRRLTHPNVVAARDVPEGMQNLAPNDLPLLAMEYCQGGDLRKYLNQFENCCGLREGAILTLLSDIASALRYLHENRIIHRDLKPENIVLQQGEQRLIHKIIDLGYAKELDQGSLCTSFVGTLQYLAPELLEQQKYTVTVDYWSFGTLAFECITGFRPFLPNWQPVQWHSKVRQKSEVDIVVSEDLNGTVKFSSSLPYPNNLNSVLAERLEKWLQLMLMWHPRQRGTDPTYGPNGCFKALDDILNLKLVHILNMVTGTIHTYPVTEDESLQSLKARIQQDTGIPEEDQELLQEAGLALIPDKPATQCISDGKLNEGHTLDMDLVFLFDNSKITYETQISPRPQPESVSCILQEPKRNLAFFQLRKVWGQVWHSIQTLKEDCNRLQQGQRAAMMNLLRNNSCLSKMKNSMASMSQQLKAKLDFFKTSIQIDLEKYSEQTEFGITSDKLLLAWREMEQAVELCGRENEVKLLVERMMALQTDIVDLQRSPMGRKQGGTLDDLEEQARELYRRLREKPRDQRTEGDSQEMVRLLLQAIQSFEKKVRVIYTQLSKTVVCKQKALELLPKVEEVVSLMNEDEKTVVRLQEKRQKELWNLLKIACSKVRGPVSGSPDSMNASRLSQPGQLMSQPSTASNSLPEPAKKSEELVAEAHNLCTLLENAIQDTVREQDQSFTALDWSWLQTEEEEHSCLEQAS
Description: To examine the pyrrolo[2,3 -b]pyridines as an alternative scaffold, we adopted the AIPP core because it had similar dimensions to 1 SU909, with HBD/HBA motifs positioned at the scaffold extremities to interact with both the hinge region and the G-loop wall of IKKα, a rationale we had previously proposed as the basis for imparting selectivity. A preliminary set of AIPP derivatives was designed to explore its utility as an IKK-targeting scaffold, whilst incorporating additional functionality through which to introduce selectivity for the IKKα isoform (2-4 SU1087, SU1266 and SU1253; FIG. 3). This was achieved by initially adopting two different approaches: either appending a hydrophobic moiety to the pyrrolo[2,3 -b]pyridine motif as a fused form to afford the tricyclic derivatives 2 and 3 SU1266 and SU1087, or as a phenyl substituent to introduce flexibility with the central pyrrolo[2,3 -b]pyridine moiety in 4 SU1253 .

[6] = system: panel of kinases; assay: kinome profiling at 1 μM; assay type: biochemical
Description: (§2) We profiled three compounds from the series across the kinome (FIG. 11). […] To identify the structural drivers for CDK inhibition, we obtained X-ray crystal structures of 5 y and 6 g SU1336 and SU1349 with CDK-2 (FIG. 12A) to potentially identify possible routes towards introducing selectivity for IKKα over the CDK enzymes as well as IKKβ. […] All three derivatives form complexes with CDK2 with the pyrrolo[2,3 -b]pyridine H-bonding to GK+3 (Leu 83 ) and the aminoindazole projected towards the G-loop (FIG. 12A), forming H-bonds with Glu 51 and Lys 33 at the back of the pocket. The adoption of the 4 SU1253 -type orientation, rather than the flipped pose observed in IKKα, is probably facilitated by Tr-stacking between the aminoindazole and the GK residue, which in the CDKs is Phe, rather than Met. […] For 6 g SU1349, the hydrophobic pendant benzyloxy group points out into solvent, but can form face-to-edge Tr-Tr interactions with Phe 82 and His 84 from the hinge. Exchanging the hydrophobic pendant benzyloxy group for the morpholinoethyl-containing substituent in 5 y SU1336 removes any direct interaction with these hinge residues, preferring to sit in a more solvent-exposed position, as befits a basic side chain that will be protonated at physiological pH (FIG. 12B).
(§3) Black, 4 SU1253; grey, 5 r SU1261; diagonal stripes, 6 g SU1349. […] All tested compounds (4 SU1253, 5 r SU1261 and 6 g SU1349 ) inhibited CDK5 and CDK9 with >80 %.

[7] = biological target: CDK5 (Homo sapiens, UniProt Q00535); assay: kinome profiling at 1 μM, CDK5; assay type: biochemical; details: read-out: % inhibition of CDK5
CDK5, sequence (Q00535 whole entry, species assumed): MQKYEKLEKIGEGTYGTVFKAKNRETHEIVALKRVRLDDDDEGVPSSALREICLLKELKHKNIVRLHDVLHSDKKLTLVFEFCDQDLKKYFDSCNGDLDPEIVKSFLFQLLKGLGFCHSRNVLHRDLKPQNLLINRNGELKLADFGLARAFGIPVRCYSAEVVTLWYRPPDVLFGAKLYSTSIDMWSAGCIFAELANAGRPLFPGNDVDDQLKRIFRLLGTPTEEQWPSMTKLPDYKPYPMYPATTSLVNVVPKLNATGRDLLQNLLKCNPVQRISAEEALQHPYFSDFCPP
CDK5, sequence (Q15078 99-307 partner limits assumed, species assumed): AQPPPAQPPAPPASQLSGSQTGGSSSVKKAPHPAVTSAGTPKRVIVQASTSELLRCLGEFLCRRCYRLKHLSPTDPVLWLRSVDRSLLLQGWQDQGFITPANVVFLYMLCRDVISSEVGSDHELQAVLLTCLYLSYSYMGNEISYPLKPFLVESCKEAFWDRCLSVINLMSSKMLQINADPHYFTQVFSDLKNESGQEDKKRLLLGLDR
Description: as §2, §3

[8] = biological target: CDK9 (Homo sapiens, UniProt P50750); assay: kinome profiling at 1 μM, CDK9; assay type: biochemical; details: read-out: % inhibition of CDK9
CDK9, sequence (P50750 whole entry, species assumed): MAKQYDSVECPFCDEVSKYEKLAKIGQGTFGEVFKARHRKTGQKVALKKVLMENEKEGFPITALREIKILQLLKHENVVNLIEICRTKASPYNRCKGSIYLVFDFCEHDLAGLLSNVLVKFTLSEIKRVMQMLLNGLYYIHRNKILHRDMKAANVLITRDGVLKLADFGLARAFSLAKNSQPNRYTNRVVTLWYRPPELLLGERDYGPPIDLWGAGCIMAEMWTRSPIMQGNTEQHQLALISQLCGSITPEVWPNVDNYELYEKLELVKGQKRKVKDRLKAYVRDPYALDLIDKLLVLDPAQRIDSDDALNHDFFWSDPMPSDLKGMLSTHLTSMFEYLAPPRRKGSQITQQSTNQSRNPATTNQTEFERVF
CDK9, sequence (O60563 whole entry partner, species assumed): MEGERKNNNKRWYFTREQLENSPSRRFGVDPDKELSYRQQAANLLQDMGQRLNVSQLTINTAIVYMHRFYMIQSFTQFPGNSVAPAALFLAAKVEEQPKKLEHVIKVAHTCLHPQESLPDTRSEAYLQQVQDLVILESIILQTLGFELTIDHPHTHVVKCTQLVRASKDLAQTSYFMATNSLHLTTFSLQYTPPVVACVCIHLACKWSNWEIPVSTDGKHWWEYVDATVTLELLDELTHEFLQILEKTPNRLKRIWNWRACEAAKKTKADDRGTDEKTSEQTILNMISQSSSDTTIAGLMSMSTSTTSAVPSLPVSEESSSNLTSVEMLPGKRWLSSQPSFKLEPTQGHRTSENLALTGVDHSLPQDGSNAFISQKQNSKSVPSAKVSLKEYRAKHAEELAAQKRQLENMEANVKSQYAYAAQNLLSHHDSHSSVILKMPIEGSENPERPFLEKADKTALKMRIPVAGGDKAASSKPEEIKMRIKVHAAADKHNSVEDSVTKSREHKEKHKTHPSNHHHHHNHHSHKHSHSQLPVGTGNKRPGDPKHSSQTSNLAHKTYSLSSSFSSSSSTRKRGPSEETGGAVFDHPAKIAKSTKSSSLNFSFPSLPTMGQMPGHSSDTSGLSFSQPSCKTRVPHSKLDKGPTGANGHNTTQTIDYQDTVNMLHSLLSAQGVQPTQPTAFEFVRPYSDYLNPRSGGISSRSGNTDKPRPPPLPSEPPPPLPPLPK
Description: as §2, §3

[9] = system: IKKα over IKKβ; assay: selectivity for IKKα over IKKβ from the kinase assay; assay type: biochemical
Description: as §1
To shift the selectivity profile towards IKKα, we selected 4 SU1253 for structural optimization based on the notion that sigma-bond rotation between the phenyl ring and the pyrrolo[2,3 -b]pyridine would inbuild the flexibility required to engage with the three dimensional array of residues nearby to exploit differences between the two isoforms. Furthermore, this would enable the inclusion of moieties that could also project into solvent and address solubility considerations. Small groups (NH2, OH, OMe, OEt and F) were initially introduced into the phenyl ring to evaluate their impact on the selectivity profile against both IKKs (5 a-g SU1354 -SU1373, Table 2 ). Our goal was to achieve a 1:50 selectivity ratio of IKKα to IKKβ, with a minimum IKKβ inhibitory Ki of 500 nM.

[10] = Turbidimetric solubility; assay type: physicochemical
[11] = mouse hepatocyte clearance (cryopreserved pooled mouse CD1 hepatocytes); assay type: in vitro ADME; details: mouse, hepatocytes; 1 μM; 0.5×10^6 cells/mL; 37° C.
Experimental: Pharmacokinetic studies were contracted to Sygnature Discovery Limited. Intrinsic clearance and half life were determined using cryopreserved pooled mouse CD1 hepatocytes. Test compounds were analysed at 1 μM in Williams Media E buffer (0.01 % DMSO) at a cell density of 0.5×10^6 cells mL^−1 . Cells were incubated at 37° C. for one hour with shaking and compound depletion was measured by LC-MS/MS at six timepoints (0.25, 5, 10, 20, 40, and 60 minutes).

Structure (SMILES) | Ki [1] [nM] | selective inhibition of IKKα, in words [2] | selectivity in U2OS cells, in words [3] | Ki [4] [nM] | Ki [5] [nM] | kinome selectivity, in words [6] | number of kinases inhibited by >80 % ([6]; panel of 231 kinases) [kinases] | number of kinases inhibited by >80 % ([6]; panel of 253 kinases (FIG. 11)) [kinases] | inhibition at 1 µM [7] [%] | inhibition at 1 µM [8] [%] | IKKβ inhibition, in words [5] | selectivity for IKKα over IKKβ, in words [9] | solubility, in words [10] | hepatocyte CLint [11] [µL/min/1e6 cells]
N#Cc1c[nH]c2nc(N)nc(-c3ccc(S(N)(=O)=O)cc3)c12 [1 SU909] | 80 | selective inhibitor of IKKα | recapitulated this discrimination in U2OS cells |  |  |  |  |  |  |  |  |  |  | 
Nc1n[nH]c2ccc(-c3ccnc4[nH]c(-c5ccccc5)cc34)cc12 [4 SU1253, 5-(2 -Phenyl-1 H-pyrrolo[2,3-b]pyridin-4-yl)-1 H-indazol-3-amine] |  |  |  | 3 | 15 | very promiscuous | 44 | 46 | > 80 | > 80 |  |  |  | 
Nc1n[nH]c2ccc(-c3ccnc4[nH]c(-c5ccnc(OCc6ccncc6)c5)cc34)cc12 [6k SU1628, 5-(2-(2-(Pyridin-4-ylmethoxy)pyridin-4-yl)-1 H-pyrrolo[2,3-b]pyridin-4-yl)-1 H-indazol-3-amine] |  |  |  | 6 | 12 |  |  |  |  |  | potent inhibition against IKKβ | equipotent against both isoforms | requisite solubility | 11
